Values of other authors in US20080014271A1, “NOVEL PHARMACEUTICAL COMPOSITIONS COMPRISING LEVETIRACETAM” (UCB, S.A., priority 2006, published 2008).

System: epilepsy

**Q.** With `CC[C@H](C(N)=O)N1CCCC1=O` [(R)-(+)-alpha-ethyl-2-oxo-1-pyrrolidine acetamide] as the compound, how does the “Activity in the treatment of epilepsy” value read?
**A.** The value was “completely lacks activity”.
